Source: the CombiSolv-Exp solvation set (Vermeire and Green 2021)

Assay: solvent given as SMILES

C=CC(C)C
Conditions	solvation free energy, 298 K [kcal/mol]
in CC(=O)N(C)C	-2.13
in CC(C)CC(C)(C)C	-2.87
in CCC(C)=O	-2.71
in CCCCCCC	-2.96
in CCCCCCCC	-2.92
in CCCCO	-2.5
in CCNC(C)=O	-2.26
in CCOC(C)=O	-2.74
in CN1CCCC1=O	-2.03
in CN(C)C=O	-2.09
in CNC(C)=O	-2.14
in CNC=O	-1.75
in Cc1ccc(C)cc1	-3.31
in ClCCCl	-2.71
in O	1.84
in O=C1CCCCC1	-2.61

Clc1cc(Cl)c(-c2c(Cl)cc(Cl)cc2Cl)c(Cl)c1
Conditions	solvation free energy, 298 K [kcal/mol]
in CCCCCCCCO	-12.5
in O	-1.96

CN(C)C(=O)c1ccc([N+](=O)[O-])cc1
Conditions	solvation free energy, 298 K [kcal/mol]
in O	-11.9

Nc1ccc(S(=O)(=O)NC(=O)c2ccccc2)cc1
Conditions	solvation free energy, 298 K [kcal/mol]
in O	-18.1

CCCCC#N
Conditions	solvation free energy, 298 K [kcal/mol]
in CCCCCC	-4.45
in CCCCCCCCCCCCCCCC	-4.01
in CCCCCCCCO	-4.89
in O	-3.49
in [2H]O[2H]	-3.42

C1CCOCC1
Conditions	solvation free energy, 298 K [kcal/mol]
in C1COCCO1	-4.53
in CC(C)CCl	-4.65
in CCC(C)Cl	-4.65
in CCCCCCCCCCCCCCCC	-3.89
in CCCCCCCCO	-4.34
in CCCCCl	-4.71
in O	-3.12
in [2H]O[2H]	-3.08

CS(=O)(=O)Cl
Conditions	solvation free energy, 298 K [kcal/mol]
in O	-4.87

CCOC(=O)CC(=O)OCC
Conditions	solvation free energy, 298 K [kcal/mol]
in O	-6

CCNc1nc(Cl)nc(NCC)n1
Conditions	solvation free energy, 298 K [kcal/mol]
in O	-10.1

CBr
Conditions	solvation free energy, 298 K [kcal/mol]
in O	-0.82

CCCCl
Conditions	solvation free energy, 298 K [kcal/mol]
in Brc1cccc2ccccc12	-3.29
in C1CCOC1	-3.88
in C1CCOCC1	-3.79
in C=CCCCCCCCCCCCCCC	-3.01
in CC(=O)OCc1ccccc1	-3.4
in CC(C)CC(C)(C)C	-3.2
in CCC(C)=O	-3.68
in CCCCCC	-3.37
in CCCCCCC	-3.27
in CCCCCCCC	-3.22
in CCCCCCCCC=CCCCCCCCC(=O)OCC(COC(=O)CCCCCCCC=CCCCCCCCC)OC(=O)CCCCCCCC=CCCCCCCCC	-3.25
in CCCCCCCCCCCCCCCC	-3.01
in CCCCCCCCO	-3.06
in CCCCCl	-3.68
in CCCCO	-3.16
in CCOC(C)=O	-3.68
in Cc1ccc(C)cc1	-3.58
in ClC(Cl)(Cl)Cl	-3.7
in ClC(Cl)Cl	-3.62
in ClCCCl	-3.7
in O	-0.37
in O=C1CCCCC1	-3.67
in [2H]O[2H]	-0.74
in c1ccc2ncccc2c1	-3.35

O=C(c1ccc(Br)cc1)N(O)c1ccc(Cl)cc1
Conditions	solvation free energy, 298 K [kcal/mol]
in O	-11.6

CC(C)CC(C)O (stereo unspecified)
Conditions	solvation free energy, 298 K [kcal/mol]
in CCCCCCCC	-4.63
in CCCCCCCCCC	-4.56

Cc1cc(=O)n(-c2ccccc2)n1C
Conditions	solvation free energy, 298 K [kcal/mol]
in O	-13.3

CCCCN(CC)C(=O)SCCC
Conditions	solvation free energy, 298 K [kcal/mol]
in O	-3.64

C=C1C=CC(C(C)C)CC1 (stereo unspecified)
Conditions	solvation free energy, 298 K [kcal/mol]
in O	0.26

COc1cccc(C=O)c1O
Conditions	solvation free energy, 298 K [kcal/mol]
in O	-6.89

COC(OC)(OC)c1ccccc1
Conditions	solvation free energy, 298 K [kcal/mol]
in O	-4.04

CC(C)S
Conditions	solvation free energy, 298 K [kcal/mol]
in O	-0.7

CCSSCC
Conditions	solvation free energy, 298 K [kcal/mol]
in O	-1.54

c1ccncc1
Conditions	solvation free energy, 298 K [kcal/mol]
in C1COCCO1	-5.69
in CC(=O)N(C)C	-5.76
in CC(C)(C)O	-5.4
in CC(C)=O	-5.42
in CC(C)CC(C)(C)C	-4.03
in CC(C)CO	-5.67
in CC(C)O	-5.27
in CCC(C)=O	-5.37
in CCC(C)O	-5.63
in CCCCCC	-4.19
in CCCCCCCCCCCCCCCC	-4.04
in CCCCCCCCO	-5.32
in CCCCN(C=O)CCCC	-5.32
in CCCCO	-5.39
in CCCO	-5.44
in CCO	-5.7
in CNC(C)=O	-5.35
in O	-4.69
in [2H]O[2H]	-4.52

CCc1ccccc1C
Conditions	solvation free energy, 298 K [kcal/mol]
in O	-0.95

CCCOC=O
Conditions	solvation free energy, 298 K [kcal/mol]
in CCCCCCCCCCCCCCCC	-3.29
in CCCCCCCCO	-3.64
in O	-2.51
in [2H]O[2H]	-2.55

C[N+](=O)[O-]
Conditions	solvation free energy, 298 K [kcal/mol]
in Brc1ccccc1	-4.19
in C1CCCCC1	-2.81
in C1CCOC1	-5.04
in C1COCCO1	-5.08
in CC1COC(=O)O1	-5.38
in CC#N	-5.63
in CC(=O)N(C)C	-5.52
in CC(=O)O	-4.86
in CC(=O)c1ccccc1	-4.89
in CC(C)(C)O	-3.79
in CC(C)=O	-5.32
in CC(C)CC(C)(C)C	-2.74
in CC(C)CCCC(C)CCCC(C)CCCCC(C)CCCC(C)CCCC(C)C	-2.56
in CC(C)CCO	-3.74
in CC(C)O	-3.92
in CC(C)OC(C)C	-3.87
in CC(Cl)Cl	-4.84
in CCBr	-4.49
in CCC(C)=O	-5.11
in CCCC#N	-5.07
in CCCCC	-2.7
in CCCCCC	-2.8
in CCCCCCC	-2.62
in CCCCCCCC	-2.62
in CCCCCCCCCC	-2.69
in CCCCCCCCCCCCCCCC	-2.52
in CCCCCCCCO	-3.49
in CCCCCl	-4.07
in CCCCO	-3.88
in CCCCOCCCC	-3.57
in CCCO	-3.94
in CCN(CC)CC	-3.55
in CCO	-4.26
in CCOC(C)=O	-4.96
in CCOCC	-4.21
in CCOCCOCCOCC	-4.91
in CCOc1ccccc1	-4.39
in CN1CCCC1=O	-5.53
in CN(C)C=O	-5.58
in CN(C)P(=O)(N(C)C)N(C)C	-5.68
in CNC=O	-5.14
in CO	-4.66
in COC(C)=O	-5.13
in COCCO	-5
in COc1ccccc1	-4.65
in CS(C)=O	-5.63
in Cc1ccc(C)cc1	-4.13
in Cc1cccc(C)n1	-4.67
in Cc1cccc(O)c1	-4.68
in Cc1ccccc1	-4.27
in Cc1ccccn1	-4.88
in ClC(Cl)(Cl)Cl	-3.49
in ClC(Cl)Cl	-4.64
in ClCCCl	-4.9
in ClCCl	-4.98
in Clc1ccccc1	-4.24
in FC(F)(F)C(F)(F)C(F)(F)C(F)(F)C(F)(F)C(F)(F)F	-2.11
in Fc1c(F)c(F)c(F)c(F)c1F	-4.22
in Fc1ccccc1	-4.53
in ICI	-3.76
in Ic1ccccc1	-4.04
in NC=O	-4.73
in Nc1ccccc1	-5.08
in O	-4.03
in O=C1CCCCC1	-5.07
in O=C1CCCO1	-5.44
in O=CN1CCOCC1	-5.28
in OCCO	-4.07
in OCCOCCOCCO	-4.01
in OCc1ccccc1	-4.5
in S=C=S	-3.25
in [2H]O[2H]	-4.01
in c1ccc2ncccc2c1	-4.72
in c1ccc(COCc2ccccc2)cc1	-4.41
in c1ccccc1	-4.5
in c1ccncc1	-5.08

CN1CCCC1=O
Conditions	solvation free energy, 298 K [kcal/mol]
in C1CCCCC1	-5.73
in CC(C)CC(C)(C)C	-5.93
in O	-7.83
in c1ccccc1	-6.83

C=C(C)C1CC=C(C)CCC=C(C)CC1 (stereo unspecified)
Conditions	solvation free energy, 298 K [kcal/mol]
in O	-0.37

C=C(C)C(CC=C(C)C)COC(C)=O (stereo unspecified)
Conditions	solvation free energy, 298 K [kcal/mol]
in O	-3.36

O=[N+]([O-])c1cccc(CO)c1
Conditions	solvation free energy, 298 K [kcal/mol]
in O	-9.19

c1ccc2cc3ccccc3cc2c1
Conditions	solvation free energy, 298 K [kcal/mol]
in Brc1ccccc1	-11.6
in C1CCOC1	-11.9
in C1COCCO1	-11.5
in CC(=O)N(C)C	-11.5
in CC(C)(C)O	-9.71
in CC(C)=O	-11.2
in CC(C)CC(C)(C)C	-9.93
in CC(C)CC(C)O	-9.89
in CC(C)CCCC(C)CCO	-10.2
in CC(C)CCO	-9.93
in CC(C)CO	-9.77
in CC(C)O	-10
in CC(C)OC(C)C	-10.5
in CC(C)OCCO	-10.8
in CC(O)COC(C)(C)C	-10.5
in CCC(C)(C)O	-9.99
in CCC(C)=O	-11.3
in CCC(C)O	-9.9
in CCCC(=O)OC	-11.2
in CCCC(C)CO	-10
in CCCC(C)O	-9.99
in CCCCC(CC)CO	-10.1
in CCCCCC	-10.2
in CCCCCCC	-10.2
in CCCCCCCC	-10.2
in CCCCCCCCCC	-10.3
in CCCCCCCCCCO	-10.5
in CCCCCCCCO	-10.3
in CCCCCCCO	-10.3
in CCCCCCO	-10.3
in CCCCCO	-10.2
in CCCCCOC(C)=O	-11.1
in CCCCCl	-11.2
in CCCCO	-10.1
in CCCCOC(C)=O	-11.1
in CCCCOCCCC	-10.6
in CCCCOCCO	-10.8
in CCCO	-10
in CCCOC(C)=O	-11.1
in CCCOCCO	-10.8
in CCO	-10.4
in CCOC(C)=O	-11.1
in CCOCC	-10.9
in CCOCCO	-10.7
in CN1CCCC1=O	-12
in CN(C)C=O	-11.6
in CNC=O	-10.4
in CO	-9.89
in COC(C)(C)C	-10.7
in COC(C)=O	-11.1
in COC(C)CCO	-10.7
in COCCO	-10.8
in Cc1ccc(C)cc1	-11.2
in Cc1cccc(C)c1	-11.3
in Cc1ccccc1C	-11.5
in ClC(Cl)(Cl)Cl	-11.2
in ClC(Cl)Cl	-11.5
in ClCCl	-11.8
in Clc1ccccc1	-11.5
in Fc1ccccc1	-11.3
in N#Cc1ccccc1	-11.4
in O	-4.12
in O=C1CCCCC1	-11.6
